Assays:
Type in all cases: biochemical
PDK-1 = target: T1, PDK-1 (Homo sapiens, UniProt O15530); experiment: PDK-1 kinase inhibition ELISA assay (phosphorylation of His6-tagged SGK1 S422D by PDK-1); settings: PDK-1 ELISA, Table 11; read-out: Average IC50
T1 sequence (O15530 1-556): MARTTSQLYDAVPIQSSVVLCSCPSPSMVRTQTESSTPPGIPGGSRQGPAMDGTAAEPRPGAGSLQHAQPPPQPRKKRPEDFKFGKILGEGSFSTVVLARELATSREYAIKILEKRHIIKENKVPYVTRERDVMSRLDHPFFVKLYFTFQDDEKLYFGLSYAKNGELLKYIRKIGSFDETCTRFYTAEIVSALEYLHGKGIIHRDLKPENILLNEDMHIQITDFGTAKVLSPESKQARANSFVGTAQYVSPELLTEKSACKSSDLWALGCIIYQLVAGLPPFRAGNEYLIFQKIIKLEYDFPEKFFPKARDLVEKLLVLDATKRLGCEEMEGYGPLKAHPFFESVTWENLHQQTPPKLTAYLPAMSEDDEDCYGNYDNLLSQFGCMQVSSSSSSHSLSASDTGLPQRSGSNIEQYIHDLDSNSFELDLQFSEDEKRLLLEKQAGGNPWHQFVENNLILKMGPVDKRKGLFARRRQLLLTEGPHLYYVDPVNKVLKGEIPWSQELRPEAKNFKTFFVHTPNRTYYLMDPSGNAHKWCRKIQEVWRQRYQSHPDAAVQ

PKA = PKA (Homo sapiens, UniProt P17612); experiment: PKA kinase inhibition, Z'-LYTE FRET assay
Akt1 = Akt1 (Homo sapiens, UniProt P31749); experiment: Akt1 kinase inhibition, Z'-LYTE FRET assay; settings: 100 μM ATP
Description: (§1) The ability of illustrative Benzo[c][2,7]naphthyridine Derivatives to inhibit PKA, Akt1, S6K in vitro can be determined using a Fluorescence Resonance Energy Transfer (FRET) assay, such as a Z′-LYTE™ Kinase Assay Platform, commercially available from Invitrogen (c.f. Rodems et al., ASSAY Drug Devel. Technol. 1:9-19 (2002) and Zhang et al., J. Biomol. Screen. 4:67-73 (1999)). Z′-Lyte™ assay is an in vitro FRET-based assay that utilizes differential sensitivity of phosphorylated and non-phosphorylated peptides to proteolytic cleavage. The peptide substrate (also available from Invitrogen for each of PKA, Akt1 and S6K) is labeled with two different fluorophores, a fluorescence donor at one end of the peptide and a fluorescence acceptor at the other end of the peptide. In the primary kinase reaction, the kinase phosphorylates the peptide substrate in the presence of ATP. In the secondary reaction, a site-specific protease recognizes and cleaves non-phosphorylated peptides, but not phosphorylated peptides. Cleavage disrupts FRET between the donor and acceptor fluorophores on the peptide, whereas uncleaved phosphorylated peptides maintain FRET. Based on a formula that uses the ratio of donor emission (at 460 nm) to acceptor emission (at […]) after excitation of the donor fluorophore at 400 nm, the extent of phosphorylation of the peptide substrates is calculated. IC50 values of illustrative Benzo[c][2,7]naphthyridine Derivatives, shown in Table 12, are calculated using LSW Data Analysis package add-in for Excel (Microsoft).

S6K = S6K (Homo sapiens, UniProt P23443); experiment: S6K kinase inhibition, Z'-LYTE FRET assay; settings: 100 μM ATP
Description: as §1

Sequence of Akt1 (P31749 whole entry, species assumed): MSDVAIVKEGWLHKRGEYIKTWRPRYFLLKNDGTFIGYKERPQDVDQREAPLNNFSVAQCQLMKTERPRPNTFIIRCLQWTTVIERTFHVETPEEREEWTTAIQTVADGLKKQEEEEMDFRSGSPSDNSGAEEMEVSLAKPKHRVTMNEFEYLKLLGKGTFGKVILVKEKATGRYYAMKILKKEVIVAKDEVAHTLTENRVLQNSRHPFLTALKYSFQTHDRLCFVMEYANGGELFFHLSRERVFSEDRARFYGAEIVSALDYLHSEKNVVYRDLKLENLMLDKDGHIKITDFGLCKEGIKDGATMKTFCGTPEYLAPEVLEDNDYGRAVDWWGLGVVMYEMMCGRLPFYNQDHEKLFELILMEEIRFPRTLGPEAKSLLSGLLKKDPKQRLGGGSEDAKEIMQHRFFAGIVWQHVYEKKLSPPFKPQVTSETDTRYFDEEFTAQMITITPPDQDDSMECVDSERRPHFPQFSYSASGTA
Sequence of S6K (P23443 whole entry): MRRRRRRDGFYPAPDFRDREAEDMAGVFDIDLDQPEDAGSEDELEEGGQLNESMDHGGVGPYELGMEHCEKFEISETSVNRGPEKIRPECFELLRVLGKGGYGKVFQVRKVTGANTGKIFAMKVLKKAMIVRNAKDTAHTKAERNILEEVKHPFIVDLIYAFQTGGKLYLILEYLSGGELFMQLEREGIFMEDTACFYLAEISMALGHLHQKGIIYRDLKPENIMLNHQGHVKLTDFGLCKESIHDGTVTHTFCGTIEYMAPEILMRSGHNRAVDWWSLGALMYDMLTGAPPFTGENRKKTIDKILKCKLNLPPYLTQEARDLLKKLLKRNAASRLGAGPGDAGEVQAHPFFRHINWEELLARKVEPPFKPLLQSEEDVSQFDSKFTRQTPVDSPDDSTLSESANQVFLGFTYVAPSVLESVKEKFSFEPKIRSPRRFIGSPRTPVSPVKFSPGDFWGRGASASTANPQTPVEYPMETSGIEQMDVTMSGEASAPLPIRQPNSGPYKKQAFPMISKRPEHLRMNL

SMILES | IC50 (PDK-1) | IC50 (PKA; 20 μM ATP) | IC50 (PKA; 100 μM ATP) | IC50 (Akt1) | IC50 (S6K)
Nc1nc(-n2ccnc2)cc2c1cnc1cc(/C=C/CCN3CCCC3)ccc12 [Ia-24, 2-(1H-imidazol-1-yl)-8-[(1E)-4-pyrrolidin-1-ylbut-1-en-1-yl]benzo[c]-2,7-naphthyridin-4-amine] | 97 nM | 240 nM | > 2000 nM | 75 nM | 1030 nM
Nc1nc(-c2cncc(OC[C@@H](N)Cc3ccccc3)c2)cc2c1cnc1cc(C#CCCn3ccnc3)ccc12 [Ia-5, 2-(5-{[(2S)-2-Amino-3-phenylpropyl]oxy}pyridin-3-yl)-8-[4-(1H-imidazol-1-yl)but-1-yn-1-yl]benzo[c]-2,7-naphthyridin-4-amine] | – | 340 nM | 872 nM | 500 nM | 520 nM
COc1cc2ncc3c(N)nc(-c4cncc(OC[C@H](N)CN5Cc6ccccc6C5)c4)cc3c2cc1OC [Ib-48, 2-(5-{[(2R)-2-amino-3-(1,3-dihydro-2H-isoindol-2-yl)propyl]oxy}pyridin-3-yl)-8,9-dimethoxybenzo[c]-2,7-naphthyridin-4-amine] | 34 nM | 2700 nM | > 2000 nM | 400 nM | 405 nM
COc1cc2c(cc1OCCCCl)ncc1c(N)nc(-n3ccnc3)cc12 [Ia-17, 8-(3-Chloropropoxy)-2-(1H-imidazol-1-yl)-9-methoxybenzo[c][2,7]naphthyridin-4-amine] | 105 nM | > 10000 nM | > 2000 nM | 280 nM | > 2000 nM
COc1cc2c(cc1OCCCN1CCCC1)ncc1c(N)nc(-c3cccnc3)cc12 [Ia-31, 9-Methoxy-2-pyridin-3-yl-8-(3-pyrrolidin-1-ylpropoxy)benzo[c]-2,7-naphthyridin-4-amine] | 120 nM | > 20000 nM | > 2000 nM | 170 nM | 422 nM
COc1cc2ncc3c(N)nc(-c4cncc(OC[C@@H](N)Cc5cccc(C(F)(F)F)c5)c4)cc3c2cc1OC [Ib-24, 2-[5-({(2S)-2-amino-3-[3-(trifluoromethyl)phenyl]propyl}oxy)pyridin-3-yl]-8,9-dimethoxybenzo[c]-2,7-naphthyridin-4-amine] | 13 nM | – | 198 to 219 nM | – | 169 to 194 nM
Nc1nc(-c2cncc(OC[C@@H](N)Cc3ccccc3)c2)cc2c1cnc1ccccc12 [Ia-3, 2-(5-{[(2S)-2-Amino-3-phenylpropyl]oxy}pyridin-3-yl)benzo[c]-2,7-naphthyridin-4-amine] | 104 nM | 300 nM | 911 nM | – | 1200 nM
COc1cc2c(cc1O)ncc1c(N)nc(-n3ccnc3)cc12 [Ia-33, 4-Amino-2-(1H-imidazol-1-yl)-9-methoxybenzo[c]-2,7-naphthyridin-8-ol] | 90 nM | 2500 nM | > 2000 nM | 2000 nM | > 2000 nM
COc1cc2ncc3c(N)nc(-c4cncc(OC[C@@H](N)CN5CCOCC5)c4)cc3c2cc1OC [Ib-45, 2-(5-{[(2S)-2-amino-3-morpholin-4-ylpropyl]oxy}pyridin-3-yl)-8,9-dimethoxybenzo[c]-2,7-naphthyridin-4-amine] | 25 nM | 650 nM | > 2000 nM | – | 725 nM

Other lines, results leading:

IC50 (PDK-1) | IC50 (PKA; 20 μM ATP) | IC50 (PKA; 100 μM ATP) | IC50 (Akt1) | IC50 (S6K) | SMILES
15 nM | 25 nM | 251 nM | 12 nM | 93 nM | COc1cc2ncc3c(N)nc(-c4cncc(OC[C@H](N)Cc5ccc(F)cc5)c4)cc3c2cc1OC [Ib-47, 2-(5-{[(2R)-2-amino-3-(4-fluorophenyl)propyl]oxy}pyridin-3-yl)-8,9-dimethoxybenzo[c]-2,7-naphthyridin-4-amine]
5 nM | 340 nM | 712 nM | < 160 nM | 60 nM | COc1cc2ncc3c(N)nc(-c4cncc(OC[C@@H](N)COCc5ccccc5)c4)cc3c2cc1OC [Ib-51, 2-(5-{[(2S)-2-amino-3-(benzyloxy)propyl]oxy}pyridin-3-yl)-8,9-dimethoxybenzo[c]-2,7-naphthyridin-4-amine]
66 nM | > 20000 nM | > 2000 nM | 400 nM | 1270 nM | COc1cc2ncc3c(N)nc(-c4cncn4C)cc3c2cc1OC [Ib-63, 8,9-Dimethoxy-2-(1-methyl-1H-imidazol-5-yl)benzo[c]-2,7-naphthyridin-4-amine]
8 nM | 45 nM | 793 nM | 6.4 nM | 106 nM | COc1cc2ncc3c(N)nc(-c4cncc(OC[C@@H](N)Cc5ccccc5Cl)c4)cc3c2cc1OC [Ib-52, 2-(5-{[(2S)-2-amino-3-(2-chlorophenyl)propyl]oxy}pyridin-3-yl)-8,9-dimethoxybenzo[c]-2,7-naphthyridin-4-amine]
6 nM | < 32 nM | – | – | 19 nM | COc1cc2ncc3c(N)nc(-c4cncc(OC[C@@H](N)Cc5ccc(Cl)c(Cl)c5)c4)cc3c2cc1OC [Ib-44, 2-(5-{[(2S)-2-amino-3-(3,4-dichlorophenyl)propyl]oxy}pyridin-3-yl)-8,9-dimethoxybenzo[c]-2,7-naphthyridin-4-amine]
43 nM | 1500 nM | > 2000 nM | 250 nM | 7 to 82 nM | COc1cc2ncc3c(N)nc(-c4cncc(OC[C@H]5CCCN5)c4)cc3c2cc1OC [Ib-61, 8,9-dimethoxy-2-{5-[(2R)-pyrrolidin-2-ylmethoxy]pyridin-3-yl}benzo[c]-2,7-naphthyridin-4-amine]
18 nM | 850 nM | > 2000 nM | – | 523 to 821 nM | COc1cc2ncc3c(N)nc(-c4cncc(OC[C@@H](N)CN5CCNC(=O)C5)c4)cc3c2cc1OC [Ib-37, 4-((2S)-2-amino-3-{[5-(4-amino-8,9-dimethoxybenzo[c]-2,7-naphthyridin-2-yl)pyridin-3-yl]oxy}propyl)piperazin-2-one]
61 nM | 2100 nM | > 2000 nM | 160 nM | 220 nM | COc1cc2ncc3c(N)nc(-c4cncc(OC[C@@H](N)CN5CCc6ccccc6C5)c4)cc3c2cc1OC [Ib-50, 2-(5-{[(2S)-2-amino-3-(3,4-dihydroisoquinolin-2(1H)-yl)propyl]oxy}pyridin-3-yl)-8,9-dimethoxybenzo[c]-2,7-naphthyridin-4-amine]
850 nM | – | > 2000 nM | – | > 2000 nM | COc1cc2ncc3c(N)nc(-c4cncc(C#CCN(C)Cc5ccccc5)c4)cc3c2cc1OC [Ib-32, 2-(5-{3-[Benzyl(methyl)amino]prop-1-yn-1-yl}pyridin-3-yl)-8,9-dimethoxybenzo[c]-2,7-naphthyridin-4-amine]
17 nM | 400 nM | > 2000 nM | 15 nM | 86 nM | COc1cc2ncc3c(N)nc(-c4cncc(OC[C@@H](N)Cc5ccc(O)cc5)c4)cc3c2cc1OC [Ib-53, 4-((2S)-2-Amino-3-{[5-(4-amino-8,9-dimethoxybenzo[c]-2,7-naphthyridin-2-yl)pyridin-3-yl]oxy}propyl)phenol]
> 100 nM | – | > 2000 nM | – | > 2000 nM | COc1cc2ncc3c(N)nc(-c4cncc(OC[C@@H](N)Cc5ccc(F)cc5)c4)cc3c2cc1OCc1ccccc1 [Ia-1, 2-(5-{[(2S)-2-Amino-3-(4-fluorophenyl)propyl]oxy}pyridin-3-yl)-9-(benzyloxy)-8-methoxybenzo[c]-2,7-naphthyridin-4-amine]
